These results are taken from patent US20160375031A1, “ALPHA-OXOACYL AMINO-CAPROLACTAM DERIVATIVE” (Seikagaku Corporation, priority 2013, published 2016).

Where “and” joins values, the source holds several entries; their conditions need not be identical. Identical values can stand only once. Like-named read-outs stand apart in the source and are kept apart here.

A word on the IC50: it is the point on the concentration scale where inhibition reaches its midpoint.

Series [1] has as its system male mice fed with low-calcium diet. As to the kind of experiment: Measurement of bone resorption inhibitory activity (decrease in serum calcium in low-calcium diet mice). In kind it is in vivo. Conditions: low-calcium diet 7 days, 100 mg/kg oral, 4 hours after administration, vs control group. How it is done:
The measurement was performed by the same method as described in JP 2000-204071 A (Patent Literature 1). Specifically, male mice (23 to 25 g weight, 8 mice per group) were fed with low-calcium diet (0.1% calcium diet) for 7 days. […] The rate (%) of decrease in serum calcium was determined by comparison with the control group.
It should be noted that the data of the rate (%) of decrease in serum calcium as to comparative compounds 1 to 15 are the values shown in JP 2000-204071 A (Patent Literature 1).

Series [2] has as its target T1, Cathepsin K (Oryctolagus cuniculus, UniProt P43236).
T1 sequence (P43236 115-329): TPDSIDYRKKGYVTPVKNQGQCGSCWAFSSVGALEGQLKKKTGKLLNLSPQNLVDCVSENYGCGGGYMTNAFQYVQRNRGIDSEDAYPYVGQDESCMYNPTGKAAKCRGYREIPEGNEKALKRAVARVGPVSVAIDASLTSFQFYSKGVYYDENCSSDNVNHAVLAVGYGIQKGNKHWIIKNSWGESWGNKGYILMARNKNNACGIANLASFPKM
Method: (§1) Specifically, the decomposition of 20 μM Z-Gly-Pro-Arg-MCA by cathepsin K was measured in 100 mM potassium sodium phosphate, 1 mM EDTA, 8 mM Cysteine, pH 6.0. The reaction was performed at 37° C. for 30 minutes and then quenched by the addition of 2×10^−5 M of calpeptin. After the reaction was quenched, the intensity of fluorescence was measured at an excitation wavelength of 355 nm and a measurement wavelength of 460 nm.

Series [3] deals with T2, CYP3A4 (Homo sapiens, UniProt P08684). As to the kind of experiment: biochemical.
Method: (§2) A reaction mixture was prepared by mixing the compound of the present invention with midazolam as a typical substrate for CYP3A4 (see Food and Drug Administration (FDA) Guidance for Industry Drug Interaction Studies—Study Design, Data Analysis, Implications for Dosing, and Labeling Recommendations. FDA web site [online], www.fda.gov/downloads/drugs/guidancecomplianceregulatoryinformation/guidances/ucm292362.pdf), coenzyme NADPH-generating system, human hepatic microsomes, and a phosphate buffer. The reaction mixture was incubated at 37° C. for 10 minutes.
(§3) The coenzyme NADPH-generating system solution was prepared by mixing the materials shown in Table 1: the 13 mmol/L β-NADP^+ solution, the 33 mmol/L G-6-P solution, the solution of 10 U/mL G6PDH (Y) (manufactured by Oriental Yeast Co., Ltd.), and the 33 mmol/L MgCl2 solution in a ratio of 1:1:0.4:1 (v:v:v:v).
(§4) After the incubation, the reaction was quenched by the addition of an acetonitrile solution to the reaction mixture. The amount of 1′-hydroxymidazolam produced (the metabolite produced from midazolam by CYP3A4) was measured in the quenched sample with a high-performance liquid chromatography tandem mass spectrometer (LC-MS/MS). Each IC50 value for DI (direct inhibition) was determined from the amount of the produced 1′-hydroxymidazolam and the final concentration of the compound of the present invention or the comparative compound in the reaction mixture.
(§5) MBI (mechanism based inhibition) was evaluated as follows. After the reaction mixture not containing midazolam (but containing the compound of the present invention or the comparative compound, the coenzyme NADPH-generating system, the human hepatic microsomes, and the phosphate buffer) was pre-incubated at 37° C. for 30 minutes, midazolam was added to the reaction mixture. The reaction mixture was then incubated at 37° C. for 10 minutes. Subsequently, the reaction was quenched by the addition of an acetonitrile solution to the reaction mixture. The amount of 1′-hydroxymidazolam produced was measured in the quenched sample with an LC-MS/MS. As in the case of DI, each IC50 value for MBI was determined from the amount of the produced 1′-hydroxymidazolam and the final concentration of the compound of the present invention or the comparative compound in the reaction mixture.
Series [4] concerns the target T1, Cathepsin K. As to the kind of experiment: Measurement of cathepsin K inhibitory activity (fluorescent substrate Z-Gly-Pro-Arg-MCA). Conditions: for CYP/CatK: ratio of IC50 for CYP3A4 inhibitory activity (MBI) to IC50 for cathepsin K inhibitory activity.
Method: as §1
Series [5] deals with male mice fed with low-calcium diet. Conditions: values shown in JP 2000-204071 A (Patent Literature 1); cited from earlier work.
Series [6] has as its target T2, CYP3A4.
Method: as §2, §3, §4, §5
The mark [7] stands for this setting: read-out: CatK Inhibitory IC50, 20 μM Z-Gly-Pro-Arg-MCA, pH 6.0, 37° C., 30 minutes.
Setting [8] is: read-out: CYP3A4 Inhibitory IC50 DI, DI (direct inhibition), human hepatic microsomes, midazolam, 37° C. 10 minutes.
Setting [9] is: read-out: CYP3A4 Inhibitory IC50 MBI, MBI (mechanism based inhibition), 30 minutes pre-incubation with NADPH-generating system before midazolam.

T2 sequence (P08684 whole entry): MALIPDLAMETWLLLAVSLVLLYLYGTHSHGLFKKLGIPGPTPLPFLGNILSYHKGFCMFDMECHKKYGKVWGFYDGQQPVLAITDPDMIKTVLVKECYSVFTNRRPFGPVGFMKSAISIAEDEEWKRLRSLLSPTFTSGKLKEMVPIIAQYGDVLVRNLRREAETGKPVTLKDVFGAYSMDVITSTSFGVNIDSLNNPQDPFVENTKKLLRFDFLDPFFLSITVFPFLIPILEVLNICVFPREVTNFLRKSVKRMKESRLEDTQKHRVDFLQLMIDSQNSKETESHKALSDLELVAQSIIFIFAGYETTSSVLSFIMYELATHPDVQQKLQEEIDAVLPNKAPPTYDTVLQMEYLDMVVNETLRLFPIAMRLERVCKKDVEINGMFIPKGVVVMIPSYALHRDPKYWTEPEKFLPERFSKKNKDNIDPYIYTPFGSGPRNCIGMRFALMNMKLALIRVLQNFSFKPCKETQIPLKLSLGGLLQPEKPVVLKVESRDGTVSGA

On to `CC(C)[C@H](NC(=O)C1(NC(=O)OC2CCOCC2)CCCCC1)C(=O)C(=O)N[C@H]1CCCCNC1=O` [Compound 1, [1-[[[(1S)-3-[[(3S)-hexahydro-2-oxo-1H-azepin-3-yl]amino]-1-(1-methylethyl)-2,3-dioxopropyl]amino]carbonyl]cyclohexyl]carbamic acid tetrahydro-2H-pyran-4-yl ester], for which, in series [1], the “Rate of Decrease in Serum Ca” value was 6.2%. On Cathepsin K [2], this compound registered a CYP/CatK of 141739. The IC50 against CYP3A4 [3] is > 100 µM and 80 µM; against Cathepsin K [4], 0.00056 µM.
In the case of `COC(=O)N1CCC(OC(=O)NC2(C(=O)N[C@H](C(=O)C(=O)N[C@H]3CCCCNC3=O)C(C)C)CCCCC2)CC1` [Compound 2, [1-[[[(1S)-3-[[(3S)-hexahydro-2-oxo-1H-azepin-3-yl]amino]-1-(1-methylethyl)-2,3-dioxopropyl]amino]carbonyl]cyclohexyl]carbamic acid 1-(methoxycarbonyl)-4-piperidinyl ester], in series [1], the “Rate of Decrease in Serum Ca” value is reported as 5.6%. On Cathepsin K [2], this compound had a CYP/CatK of 44231. In addition, the IC50 is 55.6 µM and 23 µM against CYP3A4 [3]; 0.00052 µM against Cathepsin K [4].
As for “[1-[[[(1S)-3-[[(3S)-hexahydro-2-oxo-1H-azepin-3-yl]amino]-1-(1-methylethyl)-2,3-dioxopropyl]amino]carbonyl]cyclohexyl]carbamic acid 1-(methoxycarbonyl)-4-piperidinyl ester [Compound 2]”, in series [5], the “Rate of Decrease in Serum Ca” value was 4.71%. The CYP/CatK at Cathepsin K [4] came to 122. Further, the IC50 at Cathepsin K [4] (setting [7]) is 0.013 µM; at CYP3A4 [6] (setting [8]), 9.31 µM; at CYP3A4 [6] (setting [9]), 1.53 µM.
For “[1-[[[(1S)-3-[[(3S)-hexahydro-2-oxo-1H-azepin-3-yl]amino]-1-(1-methylethyl)-2,3-dioxopropyl]amino]carbonyl]cyclohexyl]carbamic acid tetrahydro-2H-pyran-4-yl ester [Compound 1]”, the “Rate of Decrease in Serum Ca” value in series [5] is listed as 5.39%. Further, at Cathepsin K [4], the CYP/CatK turned out to be 207. Further, the IC50 on Cathepsin K [4] (setting [7]) worked out at 0.016 µM; on CYP3A4 [6] (setting [8]), 11.7 µM; at CYP3A4 [6] (setting [9]) it was 3.36 µM.
